Data: patent US20120053148A1, “INHIBITORS OF HEPATITIS C VIRUS” (GILEAD SCIENCES, INC., priority 2010, published 2012)
Where two headings read alike, the source gives them in different places.

Test system: HCV Replicon IB
Test: HCV replicon assay in Huh-7 cells, genotype 1b (Rluc luciferase readout)
Format: cell-based, hepatitis C virus
Conditions: for inhibition at 10 µM: read-out: Inhibition @ 10 uM in 1b-Rluc
[1] = Hepatitis C virus, Huh-7, 72 h, HCV1B replicon, Huh-7 cells, 3 days, read-out: EC50_HCV1B_
[2] = Hepatitis C virus, 72 h, 10 uM, 1b-Rluc replicon, Huh-7 cells, 3 days
[3] = HCV1B replicon, Huh-7 cells, 3 days, read-out: EC50_HCV1B_

SMILES | EC50 [1] [nM] | inhibition at 10 µM [2] [%] | other results
CO[C@@H]1CN[C@H](CNC(=O)c2nc(N)c3cc(-c4ccccc4)cc(C(F)(F)F)c3n2)C1 [Compound 436] | 589 | – | –
Cc1cc(C(=O)NCc2ccccn2)nc2c(C(F)(F)F)cc(C3CC3(C)C)cc12 (centres unmarked) [Compound 142] | – | 99.4 | –
CCCCCCNc1nnc(-c2cc(C)c3cc(C4CC4)cc(C(F)(F)F)c3n2)o1 [Compound 389] | 145 | – | –
CNC(=O)CNC(=O)c1cc(C)c2cc(C3CC3)cc(C(F)(F)F)c2n1 [Compound 116] | – | 97.2 | –
CC(C)(C)c1cc(C2CC2)cc2c(N)cc(-c3nnc(NCCCO)s3)nc12 [Compound 384] | 3.66 | – | –
CC(C)(C)c1cc(OCC(F)(F)F)cc2c(Cl)cc(-c3nnc(NCC4OCCO4)o3)nc12 [Compound 522] | 5.85 | – | –
Nc1cc(C(=O)NCc2cccc(F)n2)nc2c(C(F)(F)F)cc(OC(F)F)cc12 [Compound 195] | – | 99.7 | –
COCCNC(=O)CNC(=O)c1cc(C)c2cc(C3CC3)cc(C(F)(F)F)c2n1 [Compound 117] | – | 94.7 | –
Cc1nnc(-c2cc(OC(F)(F)F)cc3c(Cl)cc(C(=O)NCc4ccccn4)nc23)o1 [Compound 338] | 4710 | – | –
CCCCNc1nnc(-c2cc(C)c3cc(OC)cc(C(F)(F)F)c3n2)o1 [Compound 273] | – | 100 | –
COCCCNC(=O)CNC(=O)c1cc(C)c2cc(C3CC3)cc(C(F)(F)F)c2n1 [Compound 118] | – | 84.5 | –
Cc1cc(-c2nnc(NC3CCOCC3)o2)nc2c(C(C)(C)C)cc(OCC(F)(F)F)cc12 [Compound 488] | 6.82 | – | –
Cc1cc(C(=O)NCc2ccccn2)nc2c(C(F)(F)F)cc(OC3CCCC3)cc12 [Compound 184] | – | 96 | –
Cc1cc(-c2nnc(NCC3(C)OCCO3)o2)nc2c(C(C)(C)C)cc(OCC(F)(F)F)cc12 [Compound 454] | 2.27 | – | –
CC(C)(C)c1cc(C2CC2)cc2c(N)cc(C(=O)NC[C@@H]3CC4(CN3)OCCO4)nc12 [Compound 332] | – | – | EC50 (Hepatitis C virus, Huh-7, 72 h, read-out: EC50_HCV1B_(nM)): 3.07 nM
Nc1nc(C(=O)NCc2cnccn2)nc2c(C(F)(F)F)cc(-c3ccccc3)cc12 [Compound 435] | 7.84 | – | –
Cc1cc(-c2nnc(NC3CCC(O)(CF)C3)o2)nc2c(C(C)(C)C)cc(OCC(F)(F)F)cc12 (centres unmarked) [Compound 490] | – | – | EC50 [3]: 50 nM
CC(C)(O)CCNc1nnc(-c2cc(N)c3cc(C4CC4)cc(C(C)(C)C)c3n2)o1 [Compound 367] | 2.15 | – | –
CNCCCNc1nnc(-c2cc(C)c3cc(C4CC4)cc(C(F)(F)F)c3n2)s1 [Compound 300] | – | 97.9 | –
Cc1cc(C(=O)NC[C@H]2CCCN2)nc2c(C(F)(F)F)cc(C3CC3)cc12 (single isomer, unassigned) [Compound 113] | – | 96.2 | –
Cc1cc(C(=O)NC[C@@H]2C[C@](C)(O)CN2)nc2c(C(C)(C)C)cc(C3CC3)cc12 [Compound 429] | 294 | – | –
COc1cc(C(F)(F)F)c2nc(-c3nnc(NCCCO)o3)cc(C)c2c1 [Compound 277] | – | 98.2 | –
Cc1cc(C(=O)NCc2ccccn2)nc2c(C(F)(F)F)cc(C(C)C)cc12 [Compound 157] | – | 98.8 | –
Cc1cc(-c2nnc(N[C@H]3C[C@](O)(CO)C3)o2)nc2c(C(C)(C)C)cc(C3CC3)cc12 [Compound 513] | – | – | EC50 [3]: 8.11 nM
CCOCCOCCOCCCNc1nnc(-c2cc(C)c3cc(C4CC4)cc(C(F)(F)F)c3n2)o1 [Compound 253] | – | 80 | –

SMILES | EC50 [1] [nM] | inhibition at 10 µM [2] [%] | other results
Cc1cc(-c2nnc(NCC3OCCO3)o2)nc2c(OC(F)(F)F)cc(OCC(F)(F)F)cc12 [Compound 539] | 4.12 | – | –
COC[C@]1(O)C[C@H](Nc2nnc(-c3cc(C)c4cc(OCC(F)(F)F)cc(C(C)(C)C)c4n3)o2)C1 [Compound 504] | – | – | EC50 [3]: 9.86 nM
O=C(NCC1COCCN1)c1cc(O)c2cc(C3CC3)cc(C(F)(F)F)c2n1 (centres unmarked) [Compound 217] | – | 77 | –
Nc1cc(C(=O)NC[C@@H]2CC(F)(F)CCN2)nc2c(C(F)(F)F)cc(OC(F)F)cc12 [Compound 314] | 26.1 | – | –
CC(C)(C)c1cc(C2CC2)cc2c(N)cc(-c3nnc(NCC(F)(F)CO)o3)nc12 [Compound 372] | 1.95 | – | –
CCC(C)(O)c1cc(C2CC2)cc2c(C)cc(-c3nnc(NCC4OCCO4)o3)nc12 (centres unmarked) [Compound 543] | 155 | – | –
Cc1cc(-c2nnc(N[C@H]3C[C@](O)(CF)C3)o2)nc2c(C(C)(C)C)cc(OC(F)F)cc12 [Compound 527] | 0.81 | – | –
Cc1cc(C(=O)NCCC2OCCO2)nc2c(C(F)(F)F)cc(C3CC3)cc12 [Compound 106] | – | 99.7 | –
C#Cc1cc(C(F)(F)F)c2nc(C(=O)NCc3ccccn3)cc(C)c2c1 [Compound 146] | – | 99.4 | –
Cc1cc(-c2nnc(NCC3CNC(=O)O3)o2)nc2c(C(C)(C)C)cc(C3CC3)cc12 (centres unmarked) [Compound 419] | 43.9 | – | –
O=C(NCc1ccccn1)c1cc(Cl)c2cc(OC(F)(F)F)cc(/C=C/c3ccccc3)c2n1 [Compound 240] | – | 42.2 | –
Cc1cc(-c2nnc(NCC3COCCN3)s2)nc2c(C(F)(F)F)cc(C3CC3)cc12 (centres unmarked) [Compound 299] | – | 98 | –
Cc1cc(C(=O)NCc2ccccn2)nc2c(C(F)(F)F)cc(N)cc12 [Compound 178] | – | 86.9 | –
COCCCNc1nnc(-c2cc(C)c3cc(C4CC4)cc(C(F)(F)F)c3n2)s1 [Compound 290] | – | 99.9 | –
CC(=O)Nc1cc(C(F)(F)F)c2nc(C(=O)NCc3ccccn3)cc(C)c2c1 [Compound 177] | – | 94.7 | –
CC(=O)N1CCOCC1CNC(=O)c1cc(C)c2cc(C3CC3)cc(C(F)(F)F)c2n1 (centres unmarked) [Compound 101] | – | 73.3 | –
Cc1cc(C(=O)NC[C@@H]2CC3(CN2)OCCO3)nc2c(C(C)(C)C)cc(OCC(F)(F)F)cc12 [Compound 510] | 9.8 | – | –
CS(=O)(=O)Nc1nc(C(=O)NCc2cccs2)nc2c(C(F)(F)F)cc(-c3ccccc3)cc12 [Compound 222] | – | 95.1 | –
Cc1cc(-c2nnc(NCC3OCCO3)o2)nc2c(C(F)(F)F)cc(C3CC3)cc12 [Compound 246] | – | 100 | –
CCCCNc1nnc(-c2cc(C)c3cc(C4CC4)cc(C(F)(F)F)c3n2)o1 [Compound 244] | – | 100 | –
Cc1cc(C(=O)NCC2(O)CCCC2)nc2c(C(F)(F)F)cc(C3CC3)cc12 [Compound 94] | – | 99.9 | –
CCC(CNC(=O)c1cc(N)c2cc(OC(F)F)cc(C(F)(F)F)c2n1)=NOC [Compound 316] | 61.8 | – | –
Cc1cc(-c2nnc(N[C@H]3C[C@@](C)(O)C3)o2)nc2c(C(C)(C)C)cc(OC(F)F)cc12 [Compound 525] | 0.74 | – | –
Cc1cc(C(=O)NC/C=C/c2ccccc2)nc2c(C(F)(F)F)cc(-c3ccccc3)cc12 [Compound 170] | – | 66.4 | –
Cc1cc(C(=O)NCCCO)nc2c(C(F)(F)F)cc(C3CC3)cc12 [Compound 121] | – | 99.2 | –

SMILES | EC50 [1] [nM] | inhibition at 10 µM [2] [%] | other results
Cc1cc(-c2nnc(NCCCS(N)(=O)=O)o2)nc2c(C(F)(F)F)cc(C3CC3)cc12 [Compound 267] | – | 97.7 | –
CC(C)=Cc1cc(C(F)(F)F)c2nc(C(=O)NCc3ccccn3)cc(C)c2c1 [Compound 139] | – | 99.7 | –
CC(C)(C)c1cc(C2CC2)cc2c(N)cc(-c3nnc(NC4CCCC4)o3)nc12 [Compound 348] | 5.27 | – | –
Cc1cc(-c2nnc(NCC3OCCS3)o2)nc2c(C(C)(C)C)cc(OCC(F)(F)F)cc12 (centres unmarked) [Compound 479] | 1.14 | – | –
Cc1cc(C(=O)NCc2ncccn2)nc2c(OC(F)(F)F)cc(C3CC3)cc12 [Compound 440] | 10.2 | – | –
CNCCCNC(=O)c1cc(C)c2cc(C3CC3)cc(C(F)(F)F)c2n1 [Compound 123] | – | 96.7 | –
Cc1cc(C(=O)NCC2CCCCO2)nc2c(C(F)(F)F)cc(C3CC3)cc12 (centres unmarked) [Compound 81] | – | 100 | –
Cc1cc(C(=O)NCc2ncccn2)nc2c(OC(F)F)cc(OC(F)F)cc12 [Compound 447] | 37.5 | – | –
Cc1cc(C(=O)NCc2ccccn2)nc2c(C(F)(F)F)cc(C#CC(C)(C)C)cc12 [Compound 145] | – | 72 | –
Cc1cc(C(=O)NCc2ccccn2)nc2c(C(F)(F)F)cc(C(C)(C)O)cc12 [Compound 161] | – | 76.7 | –
CC(C)(C)c1cc(C2CC2)cc2c(NC(=O)CN)cc(-c3nnc(NCC4OCCO4)o3)nc12 [Compound 361] | 7.36 | – | –
Cc1cc(-c2nnc(NCC3OC[C@H](C)O3)o2)nc2c(C(C)(C)C)cc(C3CC3)cc12 (some centres unmarked) [Compound 412] | 36.2 | – | –
Cc1cc(-c2nnc(N[C@H]3C[C@@H](OP(=O)(O)O)C3)o2)nc2c(C(C)(C)C)cc(OCC(F)(F)F)cc12 [Compound 480] | 1.24 | – | –
Cc1cc(C(=O)NC[C@@H]2CC3(CN2)OCCO3)nc2c(OC(F)(F)F)cc(C3CC3)cc12 [Compound 443] | 18.8 | – | –
Cc1cc(-c2nnc(NCC[C@@H](C)O)s2)nc2c(C(C)(C)C)cc(C3CC3)cc12 [Compound 386] | 1.14 | – | –
Cc1cc(C(=O)NCc2cccc(F)n2)nc2c(C(F)(F)F)cc(C3CC3)cc12 [Compound 80] | – | 99.8 | –
Cc1cc(-c2nnc(NCC(C)(C)CO)o2)nc2c(C(F)(F)F)cc(C3CC3)cc12 [Compound 260] | – | 96.7 | –
Cc1cc(C(=O)NCc2cnccn2)nc2c(C(F)(F)F)cc(C3CC3)cc12 [Compound 89] | – | 100 | –
Cc1cc(-c2nnc(N)s2)nc2c(C(C)(C)C)cc(C3CC3)cc12 [Compound 379] | 1100 | – | –
CCCCN(C)c1cc(C(F)(F)F)c2nc(C(=O)NCc3ccccn3)cc(C)c2c1 [Compound 176] | – | 80.4 | –
CNC(=O)CNc1nnc(-c2cc(C)c3cc(C4CC4)cc(C(F)(F)F)c3n2)o1 [Compound 264] | – | – | inhibition at 10 µM (Hepatitis C virus, Huh-7, 72 h): 99.8%
Cc1ccc(CNC(=O)c2cc(C)c3cc(C4CC4)cc(C(F)(F)F)c3n2)nc1 [Compound 85] | – | 100 | –
Cc1cc(C(=O)NCc2ncccn2)nc2c(C(F)(F)F)cc(C3CC3)cc12 [Compound 90] | – | 100 | –
Cc1cc(-c2nnc(NCCC(C)(C)O)o2)nc2c(C(C)(C)C)cc(OCC(F)(F)F)cc12 [Compound 449] | 11.3 | – | –
